# Results: patent publication US6338963B1, “Use of carbon monoxide dependent guanylyl cyclase modifiers to stimulate neuritogenesis” (NeoTherapeutics, Inc., priority 1994, dated 2002)
# Tests used:
# [1] = system: S100β protein; assay: S100β protein release from rat cultured astrocytes (ELISA); assay type: cell-based; conditions: for release of S100β protein from astrocytes: exposure for 24 hours
# Description: The S100β protein was measured by using an ELISA as described in A. Aurell et al., “The S-100 Protein in Cerebrospinal Fluid: A Simple ELISA Method,” J.Neurol. Sci. 89: 157-164 (1989).
# The NGF and S100β protein were measured by removing the cultured medium for the ELISA assays at each indicated time point.
# [2] = system: PC12 cells; assay: Neuritogenesis in PC12 cells; assay type: cell-based, rat; parameters: key to Neuritogenesis: fraction of cells bearing neurites (mean ± SEM)
# Outline: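 Rat pheochromocytoma PC12 cells on poly-ornithine were treated with AIT-082 alongside saturating NGF (40 ng/ml) from plating for 48 h, then formalin-fixed. Neurites ≥1 cell-body diameter with growth cone were counted; the neurite-bearing fraction is expressed relative to NGF alone (100%), mean ±SEM of 6 cultures.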
# [3] = system: NGF mRNA; assay: Northern/slot blot of neurotrophin mRNA from astrocytes: NGF; assay type: cell-based, NIH Swiss mice; parameters: key to NGF mRNA: The conditions which produced a detectable amount of each of the neurotrophin mRNAs are indicated by a “+”; a “++” indicating that at least twice the detectable amount was present; Those blots which were negative are indicated by a “−”; conditions: for NGF mRNA: 24 hours
# Description: Induction of neurotrophin mRNA was determined by northern blot analysis of astrocytes cultured with AIT-082, NGF, or both. The cells were harvested and RNA extracted at 24 hours after treatment.
# More particularly, astrocytes from the cerebral cortex of NIH Swiss mice (Harlan) were isolated. Briefly, newborn pups (0-24 hours) were decapitated. Their brains were removed under aseptic conditions and were placed in modified Dulbecco's medium (DMEM) containing 20% heat-inactivated horse serum (Hyclone) (“complete medium”). The neopallium was then dissected from each cerebral hemisphere and minced into 1 mm cubes.
# The astrocytes were then isolated by mechanical dissociation. The cubes were vortexed at maximum speed for one minute. The cell suspension was then passed first through 75 mm Nitex then through 10 mm Nitex. The resulting cell suspension was diluted in complete medium to a final concentration of one brain per 10 ml of complete medium. Ten milliliters of the diluted cell suspension was added to each 100 mm Falcon tissue culture plate (Fisher). After 3 days the medium was replaced with 10 ml fresh complete medium and subsequently was replaced twice weekly with DMEM containing 10% heat inactivated horse serum (“growth medium”). After two weeks in culture the astrocytes formed a confluent monolayer.
# For RNA extraction, astrocytes were trypsinized. The astrocytes were then replated onto 100 mm PORN coated plates at a cell density of 10^6 cells per plate (10 ml growth medium). After 2 hrs PBS, guanosine (Guo), or GTP at 10 mM were added to the appropriate plates. Total RNA was harvested from 1.5×10^7 cells for each treatment, 4 and 24 hrs after treatment using TRIzol reagent and supplier protocol (GIBCO BRL/Life Technologies, Inc.). For slot blots, total RNA was bound to Hybond-N filters (Amersham/United States Biochemicals) as described in Transfer and Immobilization of Nucleic Acids and Proteins to S & S Solid Supports (S and S Protocols: Schleicher & Schuell, New Hampshire, USA). Northern blots were also performed using […] total RNA from each sample. These were electrophoresed in 1% agarose gels containing formaldehyde and blotted onto Hybond-N filters according to S and S protocols.
# The blots were probed with ^32P-labeled cDNA (NGF, NT-3 and BDNF probes) or oligonucleotide probe (FGF-2) by hybridization in Piperazine-N,N′-bis-(2-ethanesulfonic acid) (PIPES) buffer (50 mM PIPES, pH 6.8; 50 mM NaH2PO4; 0.1 M NaCl; 5% SDS and 1 mM EDTA) overnight at 50° C. […] Various concentrations ([…] of total RNA), as determined by spectrophotometry, of each sample were blotted and probed so that quantification could be done after insuring a linear film response. Quantification was performed using MCID Image Analysis (St. Catherine's, Ontario, Canada). […]
smiles,measurement,setting,value
"O=C(CCn1cnc2c(=O)[nH]cnc21)Nc1ccc(C(=O)O)cc1 [AIT-082, N-4-carboxyphenyl-3-(6-oxohydropurin-9-yl)propanamide]",time of peak release of S100β protein,[1]; AIT-082 100 μM,peaked within three hours
same,release of S100β protein from astrocytes,[1],dose-dependent increase
same,Neuritogenesis,"[2]; AIT-082 10 μM, L-NAME 0.1 μM",0.220 ± 0.010
same,Neuritogenesis,"[2]; AIT-082 10 μM, L-NAME 1.0 μM",0.302 ± 0.027
same,Neuritogenesis,"[2]; AIT-082 10 μM, L-NAME 10.0 μM",0.254 ± 0.018
same,Neuritogenesis,"[2]; AIT-082 10 μM, L-NAME None",0.254 ± 0.008
same,Neuritogenesis,"[2]; AIT-082 100 μM, L-NAME 0.1 μM",0.257 ± 0.016
same,Neuritogenesis,"[2]; AIT-082 100 μM, L-NAME 1.0 μM",0.232 ± 0.019
same,Neuritogenesis,"[2]; AIT-082 100 μM, L-NAME 10.0 μM",0.289 ± 0.006
same,Neuritogenesis,"[2]; AIT-082 100 μM, L-NAME None",0.309 ± 0.027
same,"Proportion of cells bearing neurites, AIT-082 + NGF","[2]; AIT-082 10 mM + NGF 40 ng/ml, no inhibitor",0.26 ± 0.01
same,"Proportion of cells bearing neurites, AIT-082 alone","[2]; AIT-082 10 mM, no NGF, no inhibitor, 48 hours",0.2 ± 0.02
same,"Proportion of cells bearing neurites, AIT-082 + NGF","[2]; AIT-082 + NGF 40 ng/ml, Methemoglobin 1 μM",0.17 ± 0.02
same,"Proportion of cells bearing neurites, AIT-082 + NGF","[2]; AIT-082 + NGF 40 ng/ml, Methylene Blue 5 μM",0.10 ± 0.01
same,"Proportion of cells bearing neurites, AIT-082 + NGF","[2]; AIT-082 + NGF 40 ng/ml, Zn Protoporphyrin IX 1 μM",0.13 ± 0.01
same,concentration effective in stimulating neuritogenesis and enhancing NGF-stimulated neuritogenesis,"[2]; PC12 cells, 48 hours",1 mM
same,neuritogenesis compared with NGF,"[2]; PC12 cells, 48 hours",as effective as NGF
same,enhancement of the optimal effects of NGF on neuritogenesis,"[2]; with 40 ng/ml NGF, 48 hours",30%
same,NGF mRNA,[3]; AIT-082 100 mM,++
same,NGF mRNA,[3]; AIT-082 + NGF (40 ng/ml),+
Nc1nc2c(ncn2[C@@H]2O[C@H](CO)[C@@H](O)[C@H]2O)c(=O)[nH]1 [guanosine],release of S100β protein from astrocytes,[1],dose-dependent increase
same,neurite outgrowth in the absence of NGF,[2]; compound alone,slightly increased the proportion of cells with neurites
same,enhancement of NGF-induced neurite outgrowth,"[2]; in the presence of NGF, 48 hours",enhanced the neurite outgrowth induced by NGF
same,NGF mRNA in astrocytes,"[3]; guanosine, 4 hours after addition",increased
